In article PMC12057363 (Antimicrobial Agents and Chemotherapy, 2025):
Values joined by “and” are separate entries in the source; they are usually repeats but may differ in a detail not shown here. Equal entries are not always repeated. Where two headings read alike, the source gives them in different places.

Assays:
Huh-7 cells = test: cells; details: Homo sapiens, Huh-7, 336 h
YFV-17D [1] = test: microbe, parasite or virus in culture; type: cell-based; details: Yellow fever virus, Huh-7, 72 h; for EC50: read-out: Anti-YFV-17D EC50 (reduction in infectious virus); for EC90: read-out: Anti-YFV-17D EC90 (reduction in infectious virus)
cell lines = details: cited from earlier work
in vitro [2] = details: African green monkey
YFV-17D [3] = test: microbe, parasite or virus in culture; type: cell-based; details: Yellow fever virus, Huh-7, 72 h; for EC50: read-out: Anti-YFV-17D activity 3D spheroids EC50; for EC90: read-out: Anti-YFV-17D activity 3D spheroids EC90
YFV-DakH1279 = test: microbe, parasite or virus in culture; type: cell-based, Yellow fever virus; details: for EC50 / EC90: Yellow fever virus, Huh-7, 48 h; for EC50: read-out: Anti-YFV-DakH1279 EC50 (reduction in infectious virus); for EC90: read-out: Anti-YFV-DakH1279 EC90 (reduction in infectious virus)
YFV-17DD [4] = details: mouse, in vivo; cited from earlier work
YFV-17D [5] = test: microbe, parasite or virus in culture; type: cell-based; details: Yellow fever virus; for EC90: read-out: Anti-YFV-17D activity Huh-7 EC90
YFV-17D [6] = test: microbe, parasite or virus in culture; type: cell-based; details: Yellow fever virus, Macrophage, 72 h; for EC50: read-out: Anti-YFV-17D activity MDM EC50; for EC90: read-out: Anti-YFV-17D activity MDM EC90
YFV-17DD [7] = details: mouse, in vivo
[8] = test system: Japanese encephalitis virus (JEV); details: read-out: EC50 against Japanese encephalitis virus; cited from earlier work
[9] = test system: clinical YFV isolate (WT306); details: mouse, in vivo, 10 mg/kg
[10] = rat, in vivo; cited from earlier work
dengue virus (DENV) = details: read-out: EC50 against dengue virus; cited from earlier work
HCV = details: read-out: EC50 against HCV; cited from earlier work
Zika virus (ZIKV) = details: read-out: EC50 against Zika virus; cited from earlier work
YFV [11] = details: cited from earlier work
in vitro [12] = details: human
in vitro [13] = details: human; remark: listed apart in the source
in vitro [14] = details: human; remark: listed apart in the source
YFV [15] = details: mouse, in vivo; cited from earlier work
[16] = read-out: Mitotoxicity (Huh-7) IC50 MtDNA
[17] = read-out: Mitotoxicity (Huh-7) IC50 nDNA
[18] = Huh-7, 72 h, read-out: Anti-YFV-17D activity Huh-7 EC50

SMILES	IC50 (Huh-7 cells; [16]) [nM]	IC50 (Huh-7 cells; [17]) [nM]	EC50 (YFV-17D [1]) [nM]	EC90 (YFV-17D [1]) [nM]	cytotoxicity CC50 (cell lines)	CC50 (in vitro [2]) [nM]	EC50 (YFV-17D [3]) [nM]	EC90 (YFV-17D [3]) [nM]	Average infectious YFV yield, YFV-DakH1279 (YFV-DakH1279)	EC50 (YFV-DakH1279) [nM]	EC90 (YFV-DakH1279) [nM]	EC50 (YFV-17D [5]; [18]) [nM]	EC90 (YFV-17D [5]; Huh-7, 72 h) [nM]	EC50 (YFV-17D [6]) [nM]	EC90 (YFV-17D [6]) [nM]	other results
CC(C)OC(=O)[C@H](C)N[P@](=O)(OC[C@H]1O[C@@H](n2ccc(=O)[nH]c2=O)[C@@](F)(Br)[C@@H]1O)Oc1ccccc1 [Compound 2-FBU]	40900	> 50000	1200 ± 500	8600 ± 3100	68.9–>100	> 100000	2200 ± 200	7700 ± 300	4.0x10^4 ± 6.1x10^3 FFU/mL and 2.4x10^4 ± 9.8x10^3 FFU/mL and 3.3x10^3 ± 2.4x10^3 FFU/mL and 2.8x10^2 ± 1.7x10^2 FFU/mL	1700 ± 1100	3500 ± 2300	900 ± 800	8100 ± 3500	200 ± 100	3000 ± 1600	log reduction in YFV genome copies in the liver tissue (YFV-17DD [4]): 0.7 log; percent reduction in YFV genome copies in the liver tissue (YFV-17DD [4]): ~ 80%
C[C@@]1(O)[C@H](O)[C@@H](CO)O[C@H]1n1cc(F)c2c(N)ncnc21 [DFA, 7-deaza-7-fluoro-2′-C-methyladenosine]	> 50000	> 50000	800 ± 400	5600 ± 2600	>100–>200	92400 ± 8100	5500 ± 1300	12600 ± 1900	–	2400 ± 1900	5000 ± 3100	900 ± 600	3400 ± 500	500 ± 400	1000 ± 600	body weight (YFV-17DD [7]): no significant changes; inflammatory cell infiltration, infiltrate score (YFV-17DD [7]): ~ 1; total white blood cell numbers (YFV-17DD [7]): no significant changes; ALT levels (YFV-17DD [7]; 10 mg/kg): significantly reduced; YFV-17DD replication in the livers (qRT-PCR) (YFV-17DD [7]; 10 mg/kg): significantly reduced; liver pathology by histopathological analysis (YFV-17DD [7]; 10 mg/kg): reduced liver pathology; overall health status (YFV-17DD [7]; 10 mg/kg): no notable impact; EC50 [8]: 900 nM; ALT levels [9]: markedly reduced; YFV-mediated liver pathology (histology) [9]: significantly reduced; clinical severity (clinical disease score) [9]: modest but significant decrease; leukocytosis (total circulating leukocytes) [9]: significantly reduced; total portion of granulocytes in the blood [9]: significantly reduced; virus replication in the liver, infectious virions (plaque assay) [9]: significantly reduced; virus replication in the liver, total genome copy numbers [9]: significantly reduced; pharmacokinetic profile [10]: favorable pharmacokinetic profile; EC50 (dengue virus (DENV)): 500 to 1000 nM; EC50 (HCV): 70 to 900 nM; EC50 (YFV-17D [5]; Huh-7, read-out: EC50 against YFV-17D in vitro (summary range)): 900 to 5500 nM; EC50 (Zika virus (ZIKV)): 3700 nM
Nc1ncnc2c([C@@H]3N[C@H](CO)[C@@H](O)[C@H]3O)c[nH]c12 [Galidesivir]	–	–	–	–	–	–	–	–	–	–	–	–	–	–	–	activity against YFV in vitro (YFV [11]): active
CC(C)OC(=O)[C@H](C)N[P@](=O)(OC[C@H]1O[C@@H](n2ccc(=O)[nH]c2=O)[C@](C)(F)[C@@H]1O)Oc1ccccc1 [Sofosbuvir]	> 50000	> 50000	300 ± 100	1200 ± 100	–	> 100000	–	–	2.7x10^4 ± 1.1x10^4 FFU/mL and 1.4x10^4 ± 1.2x10^4 FFU/mL and 2.2x10^3 ± 1.2x10^3 FFU/mL and 1.8x10^2 ± 1.2x10^2 FFU/mL	1600 ± 1300	3100 ± 2400	600 ± 600	3000 ± 2500	1000 ± 700	2400 ± 1500	CC50 (in vitro [12]): 85600 ± 11600 nM; CC50 (in vitro [13]): > 100000 nM; CC50 (in vitro [14]): > 100000 nM; efficacy against YFV in mice (YFV [15]): little efficacy
